Measurements published in patent US7037644B1, “Means and methods for monitoring non-nucleoside reverse transcriptase inhibitor antiretroviral therapy and guiding therapeutic decisions in the treatment of HIV/AIDS” (ViroLogic, Inc., priority 1998, dated 2006).
Entries after “also recorded” stand apart in the source; their conditions may differ.

Columns and labels:
Assay type in all cases: cell-based, HIV-1
[1] = system: RTV-B clone 1 (RT A98G, G190S); assay: Phenotypic susceptibility assay (patient RTV); details: below 1 = increased susceptibility
Description: The resistance test vectors containing a functional luciferase gene cassette were constructed and host cells were transfected with the resistance test vector DNA. The resistant test vectors contained patient-derived reverse transcriptase and protease sequences that were either susceptible or resistant to the antiretroviral agents, such as nucleoside reverse transcriptase inhibitors, non-nucleoside reverse transcriptase inhibitors and protease inhibitors. The resistance test vector viral particles produced by transfecting the resistance test vector DNA into host cells, either in the presence or absence of protease inhibitors, were used to infect target host cells grown either in the absence of NRTI or NNRTI or in the presence of increasing concentrations of the drug. The amount of luciferase activity produced in infected target host cells in the presence of drug was compared to the amount of luciferase produced in infected target host cells in the absence of drug. […] The IC50 values were determined by plotting percent drug inhibition vs. log10 drug concentration.
Host cells were seeded in 10-cm-diameter dishes and were transfected several days after plating with resistance test vector plasmid DNA and the envelope expression vector. […] HIV capsid protein (p24) levels in the harvested cell culture media were determined by an EIA method as described by the manufacturer (SIAC; Frederick, Md.). […] The inhibitory effect of the drug was determined using the following equation: % luciferase inhibition=1−(RLUluc [drug]÷RLUluc)×100 where RLUluc [drug] is the relative light unit of luciferase activity in infected cells in the presence of drug and RLUluc is the Relative Light Unit of luciferase activity in infected cells in the absence of drug. […]
A resistant test vector was constructed as described in Example 1 from a patient sample designated B. The anti-retroviral treatment this patient received is unknown. […] An IC50 was determined for the resistance test vector clone for each drug tested. […]

A98G-G190S-RTV = assay: Phenotypic susceptibility assay (site directed mutant RTV); details: for change in susceptibility (fold, IC50) vs wild type control RTV: A98G and G190S, below 1 = increased susceptibility; for change in susceptibility: mutations at codons 98 and 190
Description: (§1) The resistance test vectors containing a functional luciferase gene cassette were constructed and host cells were transfected with the resistance test vector DNA. The resistant test vectors contained patient-derived reverse transcriptase and protease sequences that were either susceptible or resistant to the antiretroviral agents, such as nucleoside reverse transcriptase inhibitors, non-nucleoside reverse transcriptase inhibitors and protease inhibitors. The resistance test vector viral particles produced by transfecting the resistance test vector DNA into host cells, either in the presence or absence of protease inhibitors, were used to infect target host cells grown either in the absence of NRTI or NNRTI or in the presence of increasing concentrations of the drug. The amount of luciferase activity produced in infected target host cells in the presence of drug was compared to the amount of luciferase produced in infected target host cells in the absence of drug. Drug resistance was measured as the amount of drug required to inhibit by 50% the luciferase activity detected in the absence of drug (inhibitory concentration 50%, IC50). The IC50 values were determined by plotting percent drug inhibition vs. log10 drug concentration.
(§2) Host cells were seeded in 10-cm-diameter dishes and were transfected several days after plating with resistance test vector plasmid DNA and the envelope expression vector. Transfections were performed using a calcium-phosphate precipitation procedure. The cell culture media containing the DNA precipitate was replaced with fresh medium, from one to 24 hours, after transfection. Cell culture media containing resistance test vector viral particles was harvested one to four days after transfection and was passed through a […] filter before being stored at […]. HIV capsid protein (p24) levels in the harvested cell culture media were determined by an EIA method as described by the manufacturer (SIAC; Frederick, Md.). Before infection, target cells (293 and 293/T) were plated in cell culture media. Control infections were performed using cell culture media from mock transfections (no DNA) or transfections containing the resistance test vector plasmid DNA without the envelope expression plasmid. One to three or more days after infection the media was removed and cell lysis buffer (Promega) was added to each well. Cell lysates were assayed for luciferase activity (FIG. 3). The inhibitory effect of the drug was determined using the following equation: % luciferase inhibition=1−(RLUluc [drug]÷RLUluc)×100 where RLUluc [drug] is the relative light unit of luciferase activity in infected cells in the presence of drug and RLUluc is the Relative Light Unit of luciferase activity in infected cells in the absence of drug. IC50 values were obtained from the sigmoidal curves that were generated from the data by plotting the percent inhibition of luciferase activity vs. the log10 drug concentration. The drug inhibition curves are shown in (FIG. 3).
The A98 and G190S mutations were introduced alone or in combination into the resistance test vector using the mega-primer method for site-directed mutagenesis (Sakar and Sommar, Ibid.). Resistance test vectors containing the A98G mutation (A98G-RTV), the G190S mutation (G190S-RTV) and both mutations (A98G-G190S-RTV) were then tested using the phenotypic assay described earlier and the results were compared to those determined using a genetically defined resistance test vector that was wild type at position 98 and 190. We determined the pattern of phenotypic susceptibility to the NNRTIs, delavirdine, nevirapine and efavirenz, in the three vectors.

K101E-G190S-RTV = assay: as above; details: for change in susceptibility (fold, IC50) vs wild type control RTV: K101E and G190S; for change in susceptibility: mutations at codons 101 and 190 (190S)
Description: as §1, §2
(§3) The K101E and G190S mutations were introduced alone and in combination into resistance test vectors using the megaprimer method for site-directed mutagenesis (Sakar and Sommar, Ibid.). Resistance test vectors containing the K101E mutation (K101E-RTV), the G190S mutation (G190S-RTV) were then tested using the phenotypic assay described earlier and the results were compared to those determined using a genetically defined resistance test vector that was wild type at positions 101 and 190. We determined the pattern of phenotypic susceptibility to the NNRTIs, delavirdine, nevirapine and efavirenz, in all three vectors.

K101E-RTV = assay: as above; details: K101E alone
Description: as §1, §2, §3

V108I-RTV = assay: as above; details: for change in susceptibility (fold, IC50) vs wild type control RTV: V108I alone; for change in susceptibility: mutation at codon 108
Description: as §1, §2
The V108I mutation was introduced into the resistance test vector using the mega-primer method for site directed mutagenesis (Sakar and Sommar, Ibid.). A resistance test vector containing the V108I mutation (V108I-RTV) was then tested using the phenotypic assay described earlier and the results were compared to those determined using a genetically defined resistance test vector that was wild type at position 108. We determined the pattern of phenotypic susceptibility to the NNRTIs, delaviridine, nevirapine and efavirenz, in the V108I-RTV.

K101E-G190A-RTV = assay: as above; details: for change in susceptibility (fold, IC50) vs wild type control RTV: K101E and G190A; for change in susceptibility: mutations at codons 101 and 190 (190A)
Description: as §1, §2
(§4) The K101E, K103N and G190A mutations were introduced alone and in combination into resistance test vectors using the mega-primer method for site-directed mutagenesis (Sakar and Sommar, Ibid.).

K103N-G190A-RTV = assay: as above; details: for loss of susceptibility (fold, IC50) vs wild type control RTV: K103N and G190A; for change in susceptibility: mutations at codons 103 and 190
Description: as §1, §2, §4

SMILES | change in susceptibility (fold, IC50) [1] | change in susceptibility (fold, IC50) vs wild type control RTV (A98G-G190S-RTV) | change in susceptibility (A98G-G190S-RTV) | change in susceptibility (fold, IC50) vs wild type control RTV (K101E-G190S-RTV) | change in susceptibility (K101E-G190S-RTV) | loss of susceptibility (fold, IC50) vs wild type control RTV (K101E-RTV) | change in susceptibility (fold, IC50) vs wild type control RTV (V108I-RTV) | change in susceptibility (V108I-RTV) | change in susceptibility (fold, IC50) vs wild type control RTV (K101E-G190A-RTV) | change in susceptibility (K101E-G190A-RTV) | loss of susceptibility (fold, IC50) vs wild type control RTV (K103N-G190A-RTV) | change in susceptibility (K103N-G190A-RTV)
Cc1ccnc2c1NC(=O)c1cccnc1N2C1CC1 [nevirapine] | 640 fold | greater than 800 fold | substantial decrease | greater than 800 fold | substantial decrease | 12 fold | 3 fold | slight decrease | greater than 800 fold | substantial decrease | greater than 800 fold | substantial decrease
O=C1Nc2ccc(Cl)cc2[C@@](C#CC2CC2)(C(F)(F)F)O1 [efavirenz] | 250 fold | greater than 250 fold | substantial decrease | greater than 250 fold | substantial decrease | 5 fold | 1.7 fold | no change | 120 fold | significant decrease | 215 fold | significant decrease
CC(C)Nc1cccnc1N1CCN(C(=O)c2cc3cc(NS(C)(=O)=O)ccc3[nH]2)CC1 [delavirdine] | 0.55 fold | 0.8 fold | increase | 1.4 fold | no change | 5 fold | 1.3 fold | no change | 2 fold | slight loss of susceptibility; also recorded: no change | 40 fold | slight loss of susceptibility; also recorded: moderate decrease
